Results taken from patent US7964594B1, “Amino oxazine derivatives” (Hoffmann-La Roche Inc., priority 2009, dated 2011).

target: T1, BACE2 (Rattus norvegicus, UniProt Q6IE75); test: Assay for BACE inhibition by measuring cellular TMEM27 cleavage (INS-TMEM27 cells, ELISA of shed TMEM27); assay type: cell-based; settings: inhibition of human TMEM27 cleavage by endogenous cellular BACE2 in Ins1e rat cell line; ELISA of culture medium
T1 construct: endogenous cellular BACE2 in the Ins1e rat cell line; endogenous in cells; host or cells: INS-TMEM27 (INS1e-derived rat insulinoma cell line with doxycycline-inducible full-length hTMEM27)
T1 sequence (Q6IE75 63-514): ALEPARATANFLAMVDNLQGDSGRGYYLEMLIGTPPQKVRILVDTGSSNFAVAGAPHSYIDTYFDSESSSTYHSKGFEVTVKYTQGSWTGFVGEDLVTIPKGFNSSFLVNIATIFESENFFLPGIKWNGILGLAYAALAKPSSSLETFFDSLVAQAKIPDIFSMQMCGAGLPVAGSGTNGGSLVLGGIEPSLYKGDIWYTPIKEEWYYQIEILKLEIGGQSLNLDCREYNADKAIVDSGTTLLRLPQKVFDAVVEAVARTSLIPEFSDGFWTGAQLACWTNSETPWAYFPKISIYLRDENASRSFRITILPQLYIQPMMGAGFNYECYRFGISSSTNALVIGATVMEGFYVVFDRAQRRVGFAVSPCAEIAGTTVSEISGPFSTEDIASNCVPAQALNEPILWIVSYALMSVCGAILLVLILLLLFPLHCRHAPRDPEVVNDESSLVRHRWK
Text: Assay for BACE Inhibition by Measuring Cellular TMEM27 Cleavage
The assay uses the principle of inhibition of human TMEM27 cleavage by endogenous cellular BACE2 in the Ins1e rat cell line and shedding from the cell surface into the culture medium, followed by detection in an ELISA assay. Inhibition of BACE2 prevents the cleavage and shedding in a dose-dependent manner.
The stable cell line “INS-TMEM27” represents an INS1e-derived cell line with inducible expression (using the TetOn system) of full-length hTMEM27 in a doxycycline-dependent manner. The cells were cultured throughout the experiment in RPMI1640+Glutamax (Invitrogen) Penicillin/Streptomycin, 10% Fetal bovine serum, […], […], 100 micrograms/ml G418 and 100 microgram/ml hygromycin and were grown in adherent culture at 37° C. in a standard CO2 cell culture incubator.
INS-TMEM27 cells were seeded in 96-well plates. After 2 days in culture, BACE2 inhibitor was added in a range of concentrations as required by the assay and after a further two hours, doxycycline was added to a final concentration of 500 ng/ml. The cells were incubated for a further 46 hours and the supernatant harvested for detection of shed TMEM27.
An ELISA assay (using a pair of mouse anti-human-TMEM27 antibodies, raised against the extracellular domain of TMEM27) was used for detection of TMEM27 in the culture medium. An IC50 for BACE2 inhibition was calculated using the ELISA readout for each inhibitor concentration with standard curve-fitting software XLfit (IDBS) for the Excel spreadsheet program.

Structure (SMILES)	IC50 [nM]
C[C@]1(c2cc(NC(=O)c3ncccc3C(F)(F)F)ccc2F)N=C(N)OCC12CC2 [Example 51, (S)—N-(3-(6-Amino-8-methyl-5-oxa-7-azaspiro[2.5]oct-6-en-8-yl)-4-fluorophenyl)-3-(trifluoromethyl)picolinamide]	73
C[C@]1(c2cc(NC(=O)c3ncc(F)cc3Cl)ccc2F)N=C(N)OCC12CC2 [Example 52, (S)—N-(3-(6-Amino-8-methyl-5-oxa-7-azaspiro[2.5]oct-6-en-8-yl)-4-fluorophenyl)-3-chloro-5-fluoropicolinamide]	16
C[C@]1(c2cc(NC(=O)c3ncc(Cl)cc3Cl)ccc2F)N=C(N)OCC12CC2 [Example 53, (S)—N-(3-(6-Amino-8-methyl-5-oxa-7-azaspiro[2.5]oct-6-en-8-yl)-4-fluorophenyl)-3,5-dichloropicolinamide]	6
C[C@]1(c2cc(NC(=O)C3(C(F)(F)F)CC3)ccc2F)N=C(N)OCC12CC2 [Example 54, (S)—N-(3-(6-Amino-8-methyl-5-oxa-7-azaspiro[2.5]oct-6-en-8-yl)-4-fluorophenyl)-1-(trifluoromethyl)cyclopropanecarboxamide]	810
Cn1cc(Cl)c(C(=O)Nc2ccc(F)c([C@@]3(C)N=C(N)OCC34CC4)c2)n1 [Example 56, (S)—N-(3-(6-Amino-8-methyl-5-oxa-7-azaspiro[2.5]oct-6-en-8-yl)-4-fluorophenyl)-4-chloro-1-methyl-1H-pyrazole-3-carboxamide]	6
Cc1c(C(=O)Nc2ccc(F)c([C@@]3(C)N=C(N)OCC34CC4)c2)noc1Cl [Example 57, (S)—N-(3-(6-Amino-8-methyl-5-oxa-7-azaspiro[2.5]oct-6-en-8-yl)-4-fluorophenyl)-5-chloro-4-methylisoxazole-3-carboxamide]	6410
C[C@@]1(c2cc(NC(=O)C3(C(F)(F)F)CC3)ccc2F)CCOC(N)=N1 [Example 58, 1-Trifluoromethyl-cyclopropanecarboxylic acid [3-((S)-2-amino-4-methyl-5,6-dihydro-4H-[1,3]oxazin-4-yl)-4-fluoro-phenyl]-amide]	700
C[C@@]1(c2cc(NC(=O)CC(F)(F)F)ccc2F)CCOC(N)=N1 [Example 59, N-[3-((S)-2-Amino-4-methyl-5,6-dihydro-4H-[1,3]oxazin-4-yl)-4-fluoro-phenyl]-3,3,3-trifluoro-propionamide]	830
C[C@@]1(c2cc(NC(=O)c3ncccc3OCC(F)(F)F)ccc2F)CCOC(N)=N1 [Example 60, (S)—N-(3-(2-Amino-4-methyl-5,6-dihydro-4H-1,3-oxazin-4-yl)-4-fluorophenyl)-3-(2,2,2-trifluoroethoxy)picolinamide]	143
C[C@@]1(c2cc(NC(=O)c3ccc(OC(F)F)cn3)ccc2F)CCOC(N)=N1 [Example 61, 5-Difluoromethoxy-pyridine-2-carboxylic acid [3-((S)-2-amino-4-methyl-5,6-dihydro-4H-[1,3]oxazin-4-yl)-4-fluoro-phenyl]-amide]	474
CC1(C(=O)Nc2ccc(F)c([C@]3(C)CCOC(N)=N3)c2)COC1 [Example 62, 3-Methyl-oxetane-3-carboxylic acid [3-((S)-2-amino-4-methyl-5,6-dihydro-4H-[1,3]oxazin-4-yl)-4-fluoro-phenyl]-amide]	9130
Cc1conc1C(=O)Nc1ccc(F)c([C@]2(C)CCOC(N)=N2)c1 [Example 63]	104
C[C@@]1(c2cc(NC(=O)c3n[nH]cc3Cl)ccc2F)CCOC(N)=N1 [Example 64]	464
NC1=N[C@@]2(c3cc(NC(=O)c4ccc(Cl)cn4)ccc3F)COC[C@H]2CO1 [Example 65, 5-Chloro-pyridine-2-carboxylic acid [3-((4aS,7aS)-2-amino-4a,5-dihydro-4H-furo[3,4-d][1,3]oxazin-7a-yl)-4-fluoro-phenyl]-amide]	60
